Experimental data published in patent US20070213402A1, “Compounds which interact with the thyroid hormone receptor for the treatment of fibrotic disease” (priority 1998, published 2007).

System: c-jun
Experiment: Experiment 5: immunoblot of phosphorylated (serine 73) c-jun in rheumatoid fibroblasts
Assay type: cell-based, human
Conditions: 36 hours, 10 ng/ml TPA plus 5×10^-7M substance, compared to TPA alone (lane 1)
Procedure: Rheumatoid fibroblasts were cultured from synovium obtained from the knee joint of a patient with rheumatoid arthritis. Cells were cultured in monolayer with DMEM tissue culture medium (Gibco) with the inclusion of 5% v/v charcoal stripped serum in 75 cm^2 flasks. The cells were treated for 36 hours with the addition of 10 ng/ml TPA (phorbol ester) plus 5×10^−7M thyroid hormone, Compound II or Compound III. TPA and drugs were added at time zero and at 30 hours, the TPA addition ensured phosphorylation of c-jun.
After 36 hours, cells were lysed in phosphate buffered saline (PBS) containing protease inhibitors and 0.1% Triton-X-100, and then boiled for 5 minutes in non-reducing gel loading buffer. Samples of cell lysate corresponding to equal cell number were loaded onto a 12.5% SDS polyacrylamide gel, and electrophoresis using a Bio-Rad™, (Bio-Rad Laboratories, California USA) Mini Protean II cell was performed at approximately 100V for one hour.
Transfer of proteins to nitrocellulose membrane was performed using a Bio-Rad Mini Trans-Blot transfer cell.
Immunoblotting was performed using polyclonal rabbit anti-human phosphorylation specific (set 73) c-jun (cat. No 06659, Upstate Biotechnology), or MMP-1 (cat. No. RDI-MMP1Habr, Research Diagnostics) antibodies diluted 1:1000 in Tris buffered saline+3% fat free milk powder. […]

## CC(C)(OCc1ccc(-c2ccc(Cl)cc2)cc1)C(=O)O [Compound II, 1-[4-(4-chlorophenyl)benzyloxy]-1-methylpropionic acid]
  amount of phosphorylation of c-jun (serine 73), band intensity: lower intensity
